Reference: patent US10213449B2, “Compositions and methods for treating medulloblastoma” (The Board of Trustees of the Leland Stanford Junior …, priority 2016, dated 2019)
Entries after “also recorded” stand apart in the source; their conditions may differ.

What was measured:
[1] = system: Hh signaling in Sufu−/− mouse embryonic fibroblasts; test: RT-qPCR of Gli1 in Sufu−/− MEFs (epistasis study); format: cell-based
Excerpt: (§1) Epistasis studies were next performed to determine where in the hedgehog pathway CK2 acts. The effect of TBB was examined: (i) in NIH 3T3s stimulated with SAG, a SMO agonist, (ii) in Sufu−/− mouse embryonic fibroblasts (MEF), and (iii) in NIH 3T3 cells overexpressing GLI2 (FIG. 3d-3f).
Sufu^−/− MEFs (conditional deletion of exons 4-8) were kindly provided by Pao-Tien Chang (UCSF). SAG (S7779), GDC-0449 (Vismodegib, S1082) and CX-4945 (Silmitasertib, S2248) was purchased from SelleckChem.com. TBB was purchased from EMD (218697). Shh-N conditional medium was made using a HEK 293 cell line that stably secretes ShhN as previously described. Myc-GL12-DN (17649, pCS2-MT-GLI2-deltaN) plasmid was purchased from Addgene (Cambridge, Mass., USA). […]
NIH3T3s or SUFU−/− MEFs were plated in 6 well plates at 400,000 cells/well in 10% FBS media constituted of DMEM (Invitrogen11960-069) supplemented with 10% FBS (Hyclone Labs SH30070.02), pen/strep (Life Technologies 15140-122), sodium pyruvate (Invitrogen 11360-070) and glutamax (Invitrogen 35050-061). […] RNA was quantified on a nanodrop spectrophotometer (nanoddrop technologies ND-2000C). Transcript quantification was performed using a TaqMan RNA-to-Ct 1-Step Kit (Life technologies, 4392656) and the Applied Biosystems 7500 RT-PCR system as per the manufacturer's instructions. […]

[2] = system: MB cell lines (MB55, MB21, MB53); test: Cell viability of MB cell lines (CellTiter-Glo); format: cell-based, mouse; details: multiple MB cell lines derived from Ptch1+/− and Ptch1+/−; Trp53−/− mice
Method: Ptch+/−MB cell lines MB55 and MB21 were kindly gifted from Dr. Rosalind Segal (Dana Farber Cancer Institute, Harvard Medical School) and Ptch^+/−; p53^−/− MB53 cells were kindly gifted from Charles Rudin (Memorial Sloan-Kettering Cancer Center). All cell lines were validated for high Gli activity. Cell viability was assessed using CellTiter-Glo (G7573, Promega, WI, USA) according to the manufacturers instructions. Cells were plated at 10000 cells/well in 96-well plates, treated with drugs as indicated and data was collected on a TECAN Infinite 200 plate reader.

[3] = system: Hh signaling in NIH 3T3s stimulated with SAG; test: RT-qPCR of Gli1 in NIH 3T3s stimulated with SAG (epistasis study); format: cell-based, mouse; details: NIH 3T3s stimulated with SAG; dose-responsive
Method: as §1
NIH3T3s or SUFU−/− MEFs were plated in 6 well plates at 400,000 cells/well in 10% FBS media constituted of DMEM (Invitrogen11960-069) supplemented with 10% FBS (Hyclone Labs SH30070.02), pen/strep (Life Technologies 15140-122), sodium pyruvate (Invitrogen 11360-070) and glutamax (Invitrogen 35050-061). Cells were then starved in 0.5% FBS for 24 h prior to treatment with 25% ShhN conditioned media in 0.5% FBS+/− drug treatment. GliΔN were treated 48 h post transfection. Unless otherwise stated, all treatments were performed for 6 h. Cell lysis and RNA extraction was performed using Qiashredder homogenizers (Qiagen 79654) and RNEasy mini kits (qiagen 74104) as per manufacturer's instructions. RNA was quantified on a nanodrop spectrophotometer (nanoddrop technologies ND-2000C). Transcript quantification was performed using a TaqMan RNA-to-Ct 1-Step Kit (Life technologies, 4392656) and the Applied Biosystems 7500 RT-PCR system as per the manufacturer's instructions. […]

[4] = system: Gli2; test: Gli2 stability; format: cell-based, mouse
Method: as §1
Gli2ΔN cells were lysed with RIPA buffer (sc-24948, Santa Cruz Biotechnology) supplemented with Halt Protease & Phosphatase Inhibitor (Thermo #1861218) for 30 min on ice and lysates were cleared by centrifugation at 13000 rpm, 15 min at 4° C. Supernatants were incubated with 6× Lamelli sample buffer (10570021-1, BioWorld) at 95° C. for 5 min. The samples were then separated with a 7% SDS-PAGE gel and immunoblotted with anti-Gli2 (AF3635-SP, R&D) and anti-β-tubulin (ab6046, Abcam).

[5] = system: Medulloblastoma cell lines (MB53, MB55 and MB21 cells); test: Acquired resistance in medulloblastoma cell lines; format: cell-based, mouse; details: TBB 50 uM
Method: Medulloblastoma cell lines (MB53, MB55 and MB21 cells) were cultured in Neurobasal (Life Technologies 10888-022)+B27 supplement (Invitrogen 17504044)+DMSO (0.1%), CX-4945 (10 uM) or TBB (50 uM). […] Primer sequences are provided in supplemental table 5.

Structure (SMILES): Brc1c(Br)c(Br)c2[nH]nnc2c1Br [TBB, 4,5,6,7-tetrabromo-2H-benzotriazole]
- Gli1 mRNA / Gli transcript levels [1]: substantially decreased; also recorded: dose dependent loss of Gli1 expression
- cell viability [2]: decreased; also recorded: dose dependent tumoricidal effects
- Gli1 mRNA levels (effect of inhibitor) [3]: substantially decreased; also recorded: dose dependent loss of Gli1 expression
- GLI2 protein driven off the CMV promoter-expression vector ([4]; Gli2ΔN cells after TBB treatment): no decrease
- endogenous, full length Gli2 mRNA levels ([4]; after TBB treatment): decreases
- surviving cells after 2 weeks of culture with drug [5]: MB55 TBB treated (50 uM) cells remained
